Key:
Type in all cases: in vivo
[1] = system: Oat, Wild (wild oat, Avena fatua); assay: Test A1 postemergence, Oat, Wild; conditions: for Oat, Wild plant response rating: 31 g ai/ha, postemergence; for Plant response rating, Oat, Wild: Postemergence
How it was run: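 Postemergence species (ragweed, Palmer pigweed, wild oat) were sprayed at one- to two-leaf stage, 2 to 10 cm tall. Corn was treated preemergence by directed soil spray. Both used a loam soil/sand blend and compounds in a non-phytotoxic solvent mixture with surfactant.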

[2] = system: galium (catchweed bedstraw, Galium aparine); assay: Test A1 postemergence, galium; conditions: for Galium plant response rating: 31 g ai/ha, postemergence; for Plant response rating, Galium: Postemergence
How it was run: (§1)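 Plants grown in pots of loam/sand mix; preemergence = soil-directed spray on seeded pots, postemergence = spray at 1–2 leaves, height 2–10 cm; test chemicals formulated in non-phytotoxic solvent with surfactant.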

[3] = system: Foxtail, Giant (giant foxtail, Setaria faberi); assay: Test A1 postemergence, Foxtail, Giant; conditions: for Foxtail, Giant plant response rating: 31 g ai/ha, postemergence; for Plant response rating, Foxtail, Giant: Postemergence
How it was run: as §1

[4] = system: blackgrass (Alopecurus myosuroides); assay: Test A1 postemergence, blackgrass; conditions: 0 to 100 scale (0 no effect, 100 complete control); for Plant response rating, Blackgrass: Postemergence; for Blackgrass plant response rating: postemergence
How it was run: as §1

[5] = 0 to 100 scale (0 no effect, 100 complete control)
[6] = 125 g ai/ha, 0 to 100 scale (0 no effect, 100 complete control), 10 days

Compound	Oat, Wild plant response rating [1, 5]	Plant response rating, Oat, Wild ([1]; 125 g ai/ha, 0 to 100 scale)	Galium plant response rating [2, 5]	Plant response rating, Galium ([2]; 125 g ai/ha, 0 to 100 scale)	Foxtail, Giant plant response rating [3, 5]	Plant response rating, Foxtail, Giant ([3]; 125 g ai/ha, 0 to 100 scale)	Plant response rating, Blackgrass ([4]; 31 g ai/ha, 10 days)	Plant response rating, Blackgrass ([4]; 125 g ai/ha)	Plant response rating, Oat, Wild [1, 6]	Plant response rating, Galium [2, 6]	Plant response rating, Foxtail, Giant [3, 6]	Blackgrass plant response rating ([4]; 31 g ai/ha)	Plant response rating, Blackgrass ([4]; 125 g ai/ha, 10 days)	Plant response rating, Oat, Wild ([1]; 500 g ai/ha, 0 to 100 scale)	Plant response rating, Galium ([2]; 500 g ai/ha, 0 to 100 scale)	Plant response rating, Foxtail, Giant ([3]; 500 g ai/ha, 0 to 100 scale)	Plant response rating, Blackgrass ([4]; 500 g ai/ha)
CCOC(=O)N(c1cc(C(=O)N2C[C@@H](C)O[C@H](C)C2)c(C)c(C)c1C)S(=O)(=O)C(F)(F)F (relative stereo) [Compound 374]	0	10	60	80	0	80	0	10	–	–	–	–	–	–	–	–	–
Cc1ccc(C2=NOC3CCCC23)cc1NS(=O)(=O)C(F)(F)F (stereo not shown) [Compound 377]	0	0	0	0	0	0	0	0	–	–	–	–	–	–	–	–	–
CCc1cc(C)c(N(COC(=O)C(C)(C)C)S(=O)(=O)C(F)(F)F)cc1C1=NOC2CCCC12 (stereo not shown) [Compound 378]	0	30	20	40	0	10	0	30	–	–	–	–	–	–	–	–	–
Cc1c(NS(=O)(=O)C(F)(F)F)cc(C2=NOC3(CCCC3)C2)c(C)c1C [Compound 380]	0	–	50	–	10	–	–	–	20	60	80	20	20	–	–	–	–
Cc1cc(C)c(C2=NOC(C(C)C)C2)cc1NS(=O)(=O)C(F)(F)F (stereo not shown) [Compound 381]	0	–	0	–	0	–	–	–	20	50	50	0	70	–	–	–	–
Cc1c(C2=NOC3(CCCC3)C2)cc(N(COC(=O)C(C)(C)C)S(=O)(=O)C(F)(F)F)c(C)c1C [Compound 382]	0	–	0	–	0	–	–	–	0	50	50	0	0	–	–	–	–
Cc1cc(Cl)c(NS(=O)(=O)C(F)(F)F)cc1N1CCC2(CCCCC2)C1=O [Compound 393]	0	–	100	–	0	–	–	–	10	100	40	–	–	–	–	–	–
Cc1cc(C)c(N(COC(=O)C(C)(C)C)S(=O)(=O)C(F)(F)F)cc1N1CCC2(CCC(F)(F)CC2)C1=O [Compound 397]	–	–	–	–	–	–	–	–	10	100	20	–	40	0	100	70	90
COC1CCC2(CC1)CCN(c1cc(NS(=O)(=O)C(F)(F)F)c(C)cc1C)C2=O (stereo not shown) [Compound 398]	0	–	80	–	20	–	–	–	10	90	60	0	30	–	–	–	–
Cc1cc(C)c(N(S(=O)(=O)C(F)(F)F)S(=O)(=O)C(F)(F)F)cc1N1CCC2(CCC(C(F)(F)F)CC2)C1=O (stereo not shown) [Compound 399]	10	–	50	–	10	–	–	–	40	90	60	40	90	–	–	–	–
Cc1cc(C)c(N2CCC3(CCC(C(F)(F)F)CC3)C2=O)cc1NS(=O)(=O)C(F)(F)F (stereo not shown) [Compound 400]	0	–	80	–	0	–	–	–	0	100	0	0	30	–	–	–	–
Cc1cc(C)c(N(COC(=O)C(C)(C)C)S(=O)(=O)C(F)(F)F)cc1N1CCC2(CCC(C)CC2)C1=O (stereo not shown) [Compound 401]	0	–	50	–	0	–	–	–	30	80	60	0	30	–	–	–	–
Cc1cc(C)c(N2CCC3(CCC(C)CC3)C2=O)cc1NS(=O)(=O)C(F)(F)F (stereo not shown) [Compound 402]	10	–	70	–	0	–	–	–	10	90	20	0	0	–	–	–	–
Cc1cc(C)c(N(COC(=O)C(C)(C)C)S(=O)(=O)C(F)(F)F)cc1N1CCC2(CCC(C(F)(F)F)CC2)C1=O (stereo not shown) [Compound 403]	0	–	70	–	0	–	–	–	30	100	0	0	0	–	–	–	–
CCOc1cccc2c1C(=O)N(c1cc(N(COC(=O)C(C)(C)C)S(=O)(=O)Cl)c(C)cc1C)C2 [Compound 414]	0	–	60	–	0	–	–	–	0	70	0	0	30	–	–	–	–
